This passage reports IC50 results from patent US20050054696A1, “Indole compounds and medicinal use thereof” (priority 2001, published 2005).

pIC50: −log10 of the molar value. A value given as a limit tells only on which side of the number the result lay.

This experiment concerns the target T1, recombinant human liver glycogen phosphorylase (HLGPa) (Homo sapiens, UniProt P06737).
T1 construct: made in house; host or cells: Sf9 insect cells (unpurified cell lysate used as enzyme solution)
T1 sequence (P06737 1-847): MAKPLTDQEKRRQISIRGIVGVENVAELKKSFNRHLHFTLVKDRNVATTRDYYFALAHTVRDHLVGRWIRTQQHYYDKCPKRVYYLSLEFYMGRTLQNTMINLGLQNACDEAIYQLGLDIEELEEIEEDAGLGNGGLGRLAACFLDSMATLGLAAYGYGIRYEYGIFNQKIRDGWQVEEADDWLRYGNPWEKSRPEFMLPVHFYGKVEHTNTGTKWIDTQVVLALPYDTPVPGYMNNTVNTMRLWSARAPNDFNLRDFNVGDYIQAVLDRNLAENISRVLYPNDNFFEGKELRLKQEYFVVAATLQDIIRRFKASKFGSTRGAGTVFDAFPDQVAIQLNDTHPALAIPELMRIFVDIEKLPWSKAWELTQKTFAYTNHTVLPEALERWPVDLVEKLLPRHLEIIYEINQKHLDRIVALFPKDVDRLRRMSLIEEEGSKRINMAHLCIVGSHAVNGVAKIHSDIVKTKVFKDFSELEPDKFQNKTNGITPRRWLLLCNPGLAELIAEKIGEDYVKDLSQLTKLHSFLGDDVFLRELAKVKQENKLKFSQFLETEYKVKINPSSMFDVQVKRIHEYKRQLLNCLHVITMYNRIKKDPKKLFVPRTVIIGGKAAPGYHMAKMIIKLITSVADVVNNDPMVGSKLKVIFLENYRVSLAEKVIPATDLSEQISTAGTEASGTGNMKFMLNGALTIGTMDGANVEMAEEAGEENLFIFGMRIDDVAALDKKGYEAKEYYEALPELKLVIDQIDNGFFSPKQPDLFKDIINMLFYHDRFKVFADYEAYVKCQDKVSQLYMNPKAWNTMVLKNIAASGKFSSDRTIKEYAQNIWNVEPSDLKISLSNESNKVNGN
The experiment is described as follows: Measurement of liver glycogen phosphorylase activity (enzyme inhibitory activity against HLGPa). It is filed as biochemical. The conditions noted are these: Sf9 cell lysate expressing recombinant enzyme; reverse reaction (glycogen synthesis from G1-P), phosphate by malachite green, 60 min room temperature. As for the experimental part:
Measurement Method of Liver Glycogen Phosphorylase Activity
The measurement of the glycogen phosphorylase activity was performed by measuring the concentration of phosphoric acic produced by a reverse reaction, that is, a reaction wherein the glycogen phosphorylase synthesizes glycogen from G1-P. A cell lysate of Sf9 cells that forcibly expressed recombinant human liver glycogen phosphorylase was diluted to a protein amount of 80 μg/mL with 1 mM imidazole-hydrochloric acid buffer (pH 7.0, containing 0.2 mM PMSF, 250 mM NaCl, 0.025% BSA) and the dilute cell lysate was used as an enzyme solution of human liver glycogen phosphorylase. As a substrate solution, 25 mM Tris-HCl buffer (pH 7.2, containing 250 mM KCl, 6.25 mM MgCl2, 6.25 mM EGTA, 1.25 mM glucose-1-phosphate, 2.5 mg/ml glycogen, 7.5 mM glucose) was used. The test drug was dissolved in 0.5% dimethyl sulfoxide (DMSO). To a mixture of the test drug (10 μl) and the substrate solution (20 μl) was added an enzyme solution (20 μl) to start the enzyme reaction. As a control, 0.5% DMSO was added instead of the test drug. One free of addition of enzyme was used as a blank. The mixture was reacted at room temperature for 60 min, and a malachite green solution (50 μl) was added. The mixture was further reacted at room temperature for 20 min and absorbance at 650 nm was measured. An enzyme solution was added to the blank simultaneously with the malachite green solution and the measurement was done in the same manner. The percent inhibition (%) of the test drug was calculated from ((value of control−value of the test drug)/(value of control−value of blank))×100 (%).
As usually defined, the pIC50 is the IC50 on a negative log10 scale, so that one unit is a factor of ten. For `Cc1cccc(N2CCC(=O)N(NC(=O)c3cc4cc(Cl)ccc4[nH]3)C2=O)c1` [Example 3-12, 5-chloro-1H-indole-2-carboxylic acid (2,4-dioxo-1-(m-tolyl)perhydropyrimidin-3-yl)amide], the pIC50 is 6.17.
As for `N=C(NNC(=O)c1cc2cc(Cl)ccc2[nH]1)c1ccco1` [Example 1-137, 5-chloro-1H-indole-2-carboxylic acid 2-((furan-2-yl)-imino-methyl)hydrazide], the figure is 6.48.
As for `N=C(NNC(=O)c1cc2cc(Cl)ccc2[nH]1)c1ccccc1C(F)(F)F` [Example 1-139, 5-chloro-1H-indole-2-carboxylic acid 2-(imino-(2-trifluoromethylphenyl)-methyl)hydrazide], the figure is 6.42.
Then `Cc1ccccc1N1CCC(=O)N(NC(=O)c2cc3cc(Cl)ccc3[nH]2)C1=O` [Example 3-15, 5-chloro-1H-indole-2-carboxylic acid (2,4-dioxo-1-(o-tolyl)perhydropyrimidin-3-yl)amide], with 6.82; and `O=C(Nc1ccccc1C(=O)NNC(=O)c1cc2cc(Cl)ccc2[nH]1)OCCCO` [Example 1-112, 3-hydroxypropyl (2-(2-(5-chloro-1H-indole-2-carbonyl)hydrazinocarbonyl)phenyl)carbamate], with 7.55; and `Cc1ccccc1C(=O)NNC(=O)c1cc2cc(Cl)ccc2[nH]1` [Example 1-13, 2-methylbenzoic acid 2-(5-chloro-1H-indole-2-carbonyl)hydrazide], with 7.14.
As for `O=C(NNC(=O)c1cc2cc([N+](=O)[O-])ccc2[nH]1)c1ccccc1` [Example 1-122, benzoic acid 2-(5-nitro-1H-indole-2-carbonyl)hydrazide], the pIC50 is under 7.00.
As for `O=C(O)Cn1c(=O)n(NC(=O)c2cc3cc(Cl)ccc3[nH]2)c(=O)c2ccccc21` [Example 2-21, 2-(3-((5-chloro-1H-indole-2-carbonyl)amino)-1,2,3,4-tetrahydro-2,4-dioxoquinazolin-1-yl)acetic acid], the figure is under 7.00; as for `O=C(NN1CN(c2ccccc2)CC1=O)c1cc2cc(Cl)ccc2[nH]1` [Example 4-4, N-(1-oxo-4-phenylimidazolidin-2-yl)-5-chloro-1H-indole-2-carboxamide], under 7.00; as for `Cc1ccc2[nH]c(C(=O)NNC(=O)c3ccccc3N)cc2c1` [Example 1-62, 2-aminobenzoic acid 2-(5-methyl-1H-indole-2-carbonyl)hydrazide], 7.06.
As for `Cc1ccccc1C(=N)NNC(=O)c1cc2cc(Cl)ccc2[nH]1` [Example 1-133, 5-chloro-1H-indole-2-carboxylic acid 2-(imino-(o-tolyl)-methyl)hydrazide], the figure is 7.30; as for `O=C(NNC(=O)c1cc2cc(Cl)ccc2[nH]1)Nc1ccc(Cl)cc1` [Example 5-11, 5-chloro-1H-indole-2-carboxylic acid 2-((4-chloroanilino)carbonyl)hydrazide], under 7.00.
As for `O=C(NNC(=O)c1ccccc1O)c1cc2cc(Cl)ccc2[nH]1` [Example 1-3, 2-hydroxybenzoic acid 2-(5-chloro-1H-indole-2-carbonyl)hydrazide], the figure is 7.43; as for `CS(=O)(=O)O.N=C(Cc1ccccc1)NNC(=O)c1cc2cc(Cl)ccc2[nH]1` [Example 6-21, 5-chloro-1H-indole-2-carboxylic acid 2-((1-imino-2-phenylethyl)hydrazide methanesulfonate], 7.08; as for `O=C(NNC(=O)C1(c2ccccc2)CC1)c1cc2cc(Cl)ccc2[nH]1` [Example 5-12, 5-chloro-1H-indole-2-carboxylic acid 2-((1-phenylcyclopropane)carbonyl)hydrazide], 6.54.
For `O=C(NNC(=O)c1cc2cc(Cl)ccc2[nH]1)c1cccnc1` [Example 1-43, nicotinic acid 2-(5-chloro-1H-indole-2-carbonyl)hydrazide], the pIC50 was 7.02.
